Laboratory results taken from ChEMBL document CHEMBL1201862, “PubChem BioAssay data set” (2004).
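Where inhibition never reached the appropriate level, the endpoint shown equals the highest concentration tested. Otherwise, values were interpolated linearly from a five-concentration, 48-hour dose response in 96-well plates. GI50 is the concentration that inhibits growth by half.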 The source made the active and inactive calls. No stated cut-off is given here; in the data, active = GI50 up to about 1.1 µM and inactive = higher.

How the values were obtained:
Experiment in all cases: DTP human tumour cell line panel, 48 h
[1] = tested on: SF-268
[2] = tested on: SF-295
[3] = tested on: EKVX
[4] = tested on: MCF7
[5] = tested on: BT-549
[6] = tested on: Hs-578T
[7] = tested on: UACC-62
[8] = tested on: MDA-MB-435
[9] = tested on: IGROV-1
[10] = tested on: MDA-N
[11] = tested on: A498
[12] = tested on: CCRF-CEM
[13] = tested on: TK-10
[14] = tested on: COLO 205
[15] = tested on: U-251
[16] = tested on: SR
[17] = tested on: HT-29
[18] = tested on: M14
[19] = tested on: CAKI-1

Compound	GI50 [1]	GI50 [2]	GI50 [3]	GI50 [4]	GI50 [5]	GI50 [6]	GI50 [7]	GI50 [8]	GI50 [9]	GI50 [10]	GI50 [11]	GI50 [12]	GI50 [13]	GI50 [14]	GI50 [15]	GI50 [16]	GI50 [17]	GI50 [18]	GI50 [19]
CCOC(=O)[C@@H](NC(=O)OC(C)(C)C)[C@@H](O)C(=O)OCC	> 100 µM (inactive)	> 100 µM (inactive)	> 100 µM (inactive)	> 100 µM (inactive)	> 100 µM (inactive)	> 100 µM (inactive)	> 100 µM (inactive)	> 100 µM (inactive)	> 100 µM (inactive)	> 100 µM (inactive)	69.5 µM (inactive)	> 100 µM (inactive)	> 100 µM (inactive)	> 100 µM (inactive)	> 100 µM (inactive)	> 100 µM (inactive)	> 100 µM (inactive)	> 100 µM (inactive)	> 100 µM (inactive)
C[C@H](c1ccccc1)n1c(N)c(-c2nc3ccccc3s2)c2ccc([N+](=O)[O-])cc2c1=O	6.27 µM (inactive)	4.7 µM (inactive)	25.1 µM (inactive)	9.27 µM (inactive)	11.5 µM (inactive)	2.58 µM (inactive)	4.33 µM (inactive)	9.66 µM (inactive)	8.13 µM (inactive)	13.6 µM (inactive)	11 µM (inactive)	0.773 µM (active)	10.2 µM (inactive)	5.43 µM (inactive)	3.66 µM (inactive)	1.44 µM (inactive)	5.37 µM (inactive)	14.8 µM (inactive)	15.4 µM (inactive)
Nc1nc(-c2ccccc2)cc(-c2ccc(OCc3ccccc3)cc2O)n1	44.3 µM (inactive)	36.4 µM (inactive)	50.4 µM (inactive)	32.1 µM (inactive)	28.8 µM (inactive)	37.1 µM (inactive)	64.7 µM (inactive)	34 µM (inactive)	32.7 µM (inactive)	39.3 µM (inactive)	60.3 µM (inactive)	17 µM (inactive)	24.7 µM (inactive)	45.7 µM (inactive)	31.8 µM (inactive)	39.8 µM (inactive)	37.8 µM (inactive)	30.8 µM (inactive)	57.1 µM (inactive)
CCOC(=O)[C@@H]1[C@@H]2NC(=O)N[C@@]1(C)Oc1ccccc12	> 100 µM (inactive)	> 100 µM (inactive)	> 100 µM (inactive)	> 100 µM (inactive)	> 100 µM (inactive)	> 100 µM (inactive)	> 100 µM (inactive)	> 100 µM (inactive)	> 100 µM (inactive)	> 100 µM (inactive)	> 100 µM (inactive)	> 100 µM (inactive)	> 100 µM (inactive)	> 100 µM (inactive)	> 100 µM (inactive)	> 100 µM (inactive)	> 100 µM (inactive)	> 100 µM (inactive)	> 100 µM (inactive)
BC(=O)NC(CC(C)C)C(=O)NCC(=O)NC1c2ccsc2C(=O)C1O.CN(C)C (stereo not drawn)	> 100 µM (inactive)	> 100 µM (inactive)	> 100 µM (inactive)	2.37 µM (inactive)	> 100 µM (inactive)	> 100 µM (inactive)	> 100 µM (inactive)	> 100 µM (inactive)	> 100 µM (inactive)	> 100 µM (inactive)	> 100 µM (inactive)	31.6 µM (inactive)	> 100 µM (inactive)	> 100 µM (inactive)	> 100 µM (inactive)	> 100 µM (inactive)	> 100 µM (inactive)	> 100 µM (inactive)	> 100 µM (inactive)
COc1ccccc1/C=C/C1=NN(c2cccc(S(=O)(=O)O)c2)C2(C1)C(Cl)C(=O)N2c1nc2ccccc2s1 (stereo not drawn)	> 100 µM (inactive)	89.3 µM (inactive)	43.4 µM (inactive)	40.7 µM (inactive)	49.2 µM (inactive)	> 100 µM (inactive)	48.8 µM (inactive)	54.6 µM (inactive)	28.5 µM (inactive)	85.3 µM (inactive)	> 81.3 µM (inactive)	13.5 µM (inactive)	45.1 µM (inactive)	88.9 µM (inactive)	52.7 µM (inactive)	22.1 µM (inactive)	82.4 µM (inactive)	> 75.3 µM (inactive)	31.8 µM (inactive)
O=C(O)CCC1(C(=O)O)CCC(=O)c2ccccc21 (stereo not drawn)	> 100 µM (inactive)	> 100 µM (inactive)	–	> 100 µM (inactive)	> 100 µM (inactive)	> 100 µM (inactive)	> 100 µM (inactive)	> 100 µM (inactive)	> 100 µM (inactive)	> 100 µM (inactive)	> 100 µM (inactive)	> 100 µM (inactive)	> 100 µM (inactive)	> 100 µM (inactive)	> 100 µM (inactive)	> 100 µM (inactive)	> 100 µM (inactive)	> 100 µM (inactive)	> 100 µM (inactive)
COC(=O)NNC(c1ccc(Cl)cc1)c1ccc(Cl)cc1	21.8 µM (inactive)	–	18.8 µM (inactive)	23.7 µM (inactive)	16.1 µM (inactive)	20.4 µM (inactive)	16 µM (inactive)	31.8 µM (inactive)	16.4 µM (inactive)	22.3 µM (inactive)	18.6 µM (inactive)	17.1 µM (inactive)	17.6 µM (inactive)	18.1 µM (inactive)	19.5 µM (inactive)	20.2 µM (inactive)	16.5 µM (inactive)	15.7 µM (inactive)	16.1 µM (inactive)
Cc1ccc(C(O)c2cnc(C)n2Cc2ccccc2)cc1 (stereo not drawn)	> 100 µM (inactive)	> 100 µM (inactive)	> 100 µM (inactive)	> 100 µM (inactive)	> 100 µM (inactive)	> 100 µM (inactive)	> 100 µM (inactive)	> 100 µM (inactive)	> 100 µM (inactive)	> 100 µM (inactive)	> 100 µM (inactive)	–	> 100 µM (inactive)	> 100 µM (inactive)	> 100 µM (inactive)	> 100 µM (inactive)	> 100 µM (inactive)	> 100 µM (inactive)	> 100 µM (inactive)
CSc1[nH]nc(N)c1C(=O)Nc1ccc(C)cc1	47.5 µM (inactive)	65 µM (inactive)	32.2 µM (inactive)	39.5 µM (inactive)	90.6 µM (inactive)	> 100 µM (inactive)	> 100 µM (inactive)	30.9 µM (inactive)	–	49.5 µM (inactive)	18.7 µM (inactive)	26.1 µM (inactive)	43 µM (inactive)	55 µM (inactive)	50.2 µM (inactive)	30.6 µM (inactive)	> 100 µM (inactive)	83.9 µM (inactive)	40.1 µM (inactive)
C=C(Br)COc1ccc2c(C)cc(=O)oc2c1	69 µM (inactive)	–	43.3 µM (inactive)	< 0.01 µM (active)	> 100 µM (inactive)	90.6 µM (inactive)	–	56.1 µM (inactive)	49.3 µM (inactive)	> 100 µM (inactive)	64.7 µM (inactive)	> 100 µM (inactive)	45.9 µM (inactive)	1.99 µM (inactive)	65.3 µM (inactive)	44.2 µM (inactive)	66.4 µM (inactive)	> 100 µM (inactive)	99.1 µM (inactive)
